Data set [1] in a line: Mouse liver microsome stability. Particulars: 1 μM. In kind it is in vitro ADME. On the procedure: (§1) Preincubation mixture 2.5 μL Test Cpd. +75 μL Liver microsomes (human or mouse source) @ 3.33 mg/mL+85 µL of 100 mM potassium phosphate buffer (preincubate for 10 min @ 37° C.). Incubation mixture 62 μL of cofactor (2.85 mM)+Remaining incubation mixture (Incubated for 60 min @ 37° C.). Sample preparation 25 μL incubation mixture+200 μL of acetonitrile containing internal standard+Vortex 5 min @ 1200 rpm+Centrifuge 10 min @ 4000 rpm. Supernatant diluted 2-fold with water and injected on LC-MS/MS.

Data set [2] concerns the target T1, human AR (Homo sapiens, UniProt P10275).
T1 construct: Reporter Cells used in these assays expressed a native receptor (AR)
T1 sequence (P10275 1-920): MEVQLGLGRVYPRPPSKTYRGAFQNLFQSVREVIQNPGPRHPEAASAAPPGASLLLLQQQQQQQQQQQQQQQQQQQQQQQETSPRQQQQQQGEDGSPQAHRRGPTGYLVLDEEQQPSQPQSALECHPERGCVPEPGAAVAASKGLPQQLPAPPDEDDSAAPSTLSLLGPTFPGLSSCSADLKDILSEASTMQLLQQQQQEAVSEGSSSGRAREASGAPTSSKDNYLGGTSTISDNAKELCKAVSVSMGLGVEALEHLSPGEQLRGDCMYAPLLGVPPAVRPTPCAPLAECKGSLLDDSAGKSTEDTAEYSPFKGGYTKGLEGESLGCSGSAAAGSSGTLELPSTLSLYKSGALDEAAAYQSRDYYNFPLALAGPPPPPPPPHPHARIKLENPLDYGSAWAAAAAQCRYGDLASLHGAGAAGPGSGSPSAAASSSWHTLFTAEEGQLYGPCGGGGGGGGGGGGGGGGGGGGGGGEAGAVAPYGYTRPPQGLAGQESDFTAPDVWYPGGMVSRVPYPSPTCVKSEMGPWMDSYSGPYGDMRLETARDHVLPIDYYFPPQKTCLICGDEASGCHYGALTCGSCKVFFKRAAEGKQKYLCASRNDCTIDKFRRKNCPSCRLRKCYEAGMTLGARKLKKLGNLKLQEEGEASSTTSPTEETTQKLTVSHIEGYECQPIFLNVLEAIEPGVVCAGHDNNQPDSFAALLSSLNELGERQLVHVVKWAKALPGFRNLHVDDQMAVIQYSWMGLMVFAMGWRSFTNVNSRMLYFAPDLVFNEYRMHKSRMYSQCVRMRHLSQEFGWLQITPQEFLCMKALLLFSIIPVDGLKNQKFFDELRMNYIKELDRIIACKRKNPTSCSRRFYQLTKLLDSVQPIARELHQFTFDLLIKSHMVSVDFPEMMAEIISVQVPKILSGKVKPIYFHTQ
The data set is described as follows: Indigo Biosciences AR reporter cell assay (AR inhibition, antagonist mode). In kind it is cell-based. Particulars: for IC50: luciferase reporter cells, 24 hr, EC80 of agonist 5α-dihydro-11-keto testosterone, read-out: AR Inhibition Indigo Cell Based: Avg IC50. The procedure:
The aim of this study was to evaluate compounds 1-12 and the comparative compounds 1-2 for inhibition activities against human AR. Reporter Cells used in these assays expressed a native receptor (AR). The reporter gene, firefly luciferase, is functionally linked to an upstream receptor-specific genetic response element (GRE). Reporter cells were treated with eight concentrations, starting at 50 μM and following with 3.17-fold dilutions. Single treatment concentration was performed (n=1). Assay performance was validated using the reference antagonist hydroxy flutamide. • Step 1: A suspension of reporter cells was prepared in Cell Recovery Medium (CRM). Reporter cells were first supplemented with 2×-EC80 concentration of the reference agonist, 5α-dihydro-11-keto testosterone, then 100 μl of the Reporter Cell suspension was dispensed into wells of a white 96-well assay plate. • Step 2: Test compound master stocks were diluted in DMSO to generate solutions at ‘500×-concentration’ relative to the final treatment concentration and diluted directly into INDIGO's Compound Screening Medium (CSM; containing charcoal-stripped FBS) to generate ‘2×-concentration’ treatment media. This was diluted into the wells to the final concentration. Assay plates were incubated at 37° C., 5% CO2 and ~70% humidity for 24 hr. • Step 3: Following the incubation period, wells were rinsed once with Live Cell Multiplex (LCM) Buffer, then LCM substrate was added. Following incubation at room temperature for 15 min, LCM substrate was discarded and 100 μL/well of luciferase detection reagent was added. Subsequently, fluorescence was measured to determine the relative number of live cells per assay well. RLU values were quantified after a 10 min incubation period at room temperature to determine nuclear receptor activities.
A general note: In a reporter assay the amount or activity of a reporter protein is the signal.

The nature of data set [3]: Human liver microsome stability. In kind it is in vitro ADME. Particulars: 1 μM. The procedure:
as §1
On the technique in general: Liver microsomes are a subcellular fraction often used to study metabolism.

The target in data set [4] is T2, Human androgen receptors (Homo sapiens, UniProt P10275, T878A).
T2 construct: Human androgen receptors obtained from human LNCaP cells were used; host or cells: human LNCaP cells
T2 sequence (P10275 1-920 T878A): T1 sequence (P10275 1-920) with T878A
Put plainly: Biochemical AR LBD antagonism (Eurofins AR radioligand binding assay). The procedure:
Human androgen receptors obtained from human LNCaP cells were used in modified HEPES buffer pH 7.4. A 70 μg‡ aliquot was incubated with 0.5 nM [3H] Methyltrienolone for 20 h at 4° C. Non-specific binding was estimated in the presence of 1 μM testosterone. Receptors were filtered and washed, the filters were then counted to determine [3H] Methyltrienolone specifically bound. Compounds were screened at 10 μM.
Furthermore, as noted earlier, most clinically relevant AR inhibitors target the ligand binding domain (LBD) of the androgen receptor, and these inhibitors can lose efficacy due to point mutations in the LBD. Given that the AR protein contains multiple sub-domains, targeting other domains is an attractive approach for new inhibitors. […] Therefore, the compounds as described herein may be interacting with other subdomains in the AR protein, namely the N-terminal domain.

The mark [5] stands for this setting: Table 5, mouse liver microsomes.
The mark [6] stands for this setting: Table 5, human liver microsomes.
[7] abbreviates: Table 3, read-out: Biochemical AR LBD Antagonism: Avg IC50.
The mark [8] stands for this setting: Table 6, mouse liver microsomes.
[9] abbreviates: Table 6, human liver microsomes.
[10] abbreviates: Table 4, read-out: Biochemical AR LBD Antagonism: Average IC50.

Broadly, the IC50 is the concentration needed to halve the response being measured.

SMILES strings stand for the structures. Residue numbers refer to the chain shown, from its start. Read-outs that look alike come from different tables or passages of the source. Where only a bound is given, the exact number is not on record here.

Consider `CC(Nc1ccc2nnc(C(F)(F)F)n2n1)c1ccc(F)cc1` (racemic) [Comparative Compound 1, (R, S)—N-(1-(4-fluorophenyl)ethyl)-3-(trifluoromethyl)-[1,2,4]triazolo[4,3-b]pyridazin-6-amine, reference compound], for which the “Mouse LM: Rem @ 60 min” value in data set [1] (setting [5]) is “+++ (>60.1: “+++”)”. The IC50 in data set [2] (Table 1) is 51 to 500 nM; in data set [4] (setting [7]), > 501 nM. For the same compound, in data set [3] (setting [6]), the “Human LM: Rem @ 60 min” value is given as “+++ (>60.1: “+++”)”.
With `C[C@H](Nc1ccc2nnc(C(F)(F)F)n2n1)c1ccc(F)cc1` [Comparative Compound 2, (S)—N-(1-(4-fluorophenyl)ethyl)-3-(trifluoromethyl)-[1,2,4]triazolo[4,3-b]pyridazin-6-amine, reference compound], the IC50 in data set [2] (Table 1) and in data set [4] (setting [7]) was > 501 nM in each case.
Turning to `C[C@@H](Nc1ccc2nnc(C(F)(F)F)n2n1)c1ccc(F)cc1` [Compound 1, (R)—N-(1-(4-fluorophenyl)ethyl)-3-(trifluoromethyl)-[1,2,4]triazolo[4,3-b]pyridazin-6-amine], the “Mouse LM: Rem @ 60 min” value in data set [1] (setting [5]) and in data set [1] (setting [8]) was “++ (30.1-60: “++”)” throughout. The IC50 is < 50 nM in data set [2] (Table 1), < 50 nM in data set [2] (Table 2), > 501 nM in data set [4] (setting [7]) and > 501 nM in data set [4] (setting [10]). In addition, the “times more potent than the racemic mixture (Comparative Compound 1) in the cell-based activity assay” value in data set [2] (versus Comparative Compound 1) was ~ 2 times. For the same compound, the “times more potent than the S isomer (Comparative Compound 2) in the cell-based activity assay” value in data set [2] (versus Comparative Compound 2) is reported as ~ 150 times. Moreover, the “Human LM: Rem @ 60 min” value in data set [3] (setting [6]) and in data set [3] (setting [9]) was “+++ (>60.1: “+++”)” throughout.
On to `C[C@@H](Nc1ccc2nnc(C(F)(F)F)n2n1)c1cc(F)cc(F)c1` [Compound 2, (R)—N-(1-(3,5-difluorophenyl)ethyl)-3-(trifluoromethyl)-[1,2,4]triazolo[4,3-b]pyridazin-6-amine], for which the “Mouse LM: Rem @ 60 min” value in data set [1] (setting [8]) is “+++ (>60.1: “+++”)”. For the same compound, the IC50 in data set [2] (Table 2) was < 50 nM; in data set [4] (setting [10]) it was > 501 nM. Besides, the “Human LM: Rem @ 60 min” value in data set [3] (setting [9]) is “+++ (>60.1: “+++”)”.
Consider `CC[C@@H](Nc1ccc2nnc(C(F)(F)F)n2n1)c1ccc(F)cc1` [Compound 3, (R)—N-(1-(4-fluorophenyl)propyl)-3-(trifluoromethyl)-[1,2,4]triazolo[4,3-b]pyridazin-6-amine], for which, in data set [1] (setting [8]), the “Mouse LM: Rem @ 60 min” value was “+++ (>60.1: “+++”)”. The IC50 in data set [2] (Table 2) was < 50 nM; in data set [4] (setting [10]) it was > 501 nM. Besides, the “Human LM: Rem @ 60 min” value in data set [3] (setting [9]) was “+++ (>60.1: “+++”)”.
With `C[C@@H](Nc1ccc2nnc(C(F)(F)F)n2n1)c1ccc(C(F)(F)F)cc1` [Compound 4, (R)-3-(trifluoromethyl)-N-(1-(4-(trifluoromethyl)phenyl)ethyl)-[1,2,4]triazolo[4,3-b]pyridazin-6-amine], the “Mouse LM: Rem @ 60 min” value in data set [1] (setting [8]) is “+++ (>60.1: “+++”)”. In addition, in data set [2] (Table 2), the IC50 was 51 to 500 nM. Moreover, the “Human LM: Rem @ 60 min” value in data set [3] (setting [9]) is given as “+++ (>60.1: “+++”)”.
On to `C[C@H](c1ccc(F)cc1)N(C)c1ccc2nnc(C(F)(F)F)n2n1` [Compound 5, (R)—N-(1-(4-fluorophenyl)ethyl)-N-methyl-3-(trifluoromethyl)-[1,2,4]triazolo[4,3-b]pyridazin-6-amine], for which, in data set [1] (setting [8]), the “Mouse LM: Rem @ 60 min” value was “+ (0-30: “+”)”. The IC50 in data set [2] (Table 2) and in data set [4] (setting [10]) was 51 to 500 nM in each case. Moreover, the “Human LM: Rem @ 60 min” value in data set [3] (setting [9]) was “+++ (>60.1: “+++”)”.
Take `COc1cc([C@@H](C)Nc2ccc3nnc(C(F)(F)F)n3n2)ccc1F` [Compound 6, (R)—N-(1-(4-fluoro-3-methoxyphenyl)ethyl)-3-(trifluoromethyl)-[1,2,4]triazolo[4,3-b]pyridazin-6-amine]: the “Mouse LM: Rem @ 60 min” value in data set [1] (setting [8]) is reported as “+ (0-30: “+”)”. The IC50 in data set [2] (Table 2) was 51 to 500 nM; in data set [4] (setting [10]), > 501 nM. The “Human LM: Rem @ 60 min” value in data set [3] (setting [9]) is given as “+++ (>60.1: “+++”)”.
For `COc1cc(Cl)cc([C@@H](C)Nc2ccc3nnc(C(F)(F)F)n3n2)c1` [Compound 7, (R)—N-(1-(3-chloro-5-methoxyphenyl)ethyl)-3-(trifluoromethyl)-[1,2,4]triazolo[4,3-b]pyridazin-6-amine] the same measures were “+ (0-30: “+”)”, 51 to 500 nM, 51 to 500 nM and “+++ (>60.1: “+++”)”.
As for `C[C@@H](Nc1ccc2nnc(C(F)(F)F)n2n1)c1ccc(C#N)cc1` [Compound 9, (R)-4-(1-((3-(trifluoromethyl)-[1,2,4]triazolo[4,3-b]pyridazin-6-yl)amino)ethyl)benzonitrile], the IC50 in data set [2] (Table 2) is > 501 nM.
For `C[C@@H](Nc1ccc2nnc(C3CC3)n2n1)c1ccc(F)cc1` [Compound 11, (R)-3-cyclopropyl-N-(1-(4-fluorophenyl)ethyl)-[1,2,4]triazolo[4,3-b]pyridazin-6-amine], the IC50 in data set [2] (Table 2) was > 501 nM.

For the origin of these results see patent publication US20260217716A1, “ANDROGEN RECEPTOR MODULATORS AND METHODS FOR THEIR USE” (Capulus Therapeutics, LLC, priority 2022, published 2026).
